Tests used:
[1] = system: alcoholic liver cirrhosis; conditions: oral SAMe, compared with a placebo treated group; cited from earlier work
[2] = Storage stability at room temperature, checked by UV absorption spectra and HPLC; assay type: physicochemical; conditions: for maximum absorption peak at 420 nm (toxic degradation products of incorporated IPA): UV absorption spectra, initial and after eight months at room temperature; for SAMe degradation products by HPLC or UV absorption spectra: stored for eight months at room temperature
Text: Stability of the IPA salt can be assessed by the method disclosed in Bottiglieri, T. (1990), Biomed Chromatogr, 4(6):239-41.
Ultraviolet-visible light absorption spectra were obtained for the product of Synthetic Example 1 and the product of Synthetic Example 2 (see FIG. 1 and FIG. 2, respectively). An ultraviolet-visible light absorption spectrum was also obtained at the same time for a blank sample (see FIG. 5) for control purposes.
The product of Synthetic Example 1 and the product of Synthetic Example 2 were then stored for eight months at room temperature, after which ultraviolet-visible light absorption spectra were obtained for the stored products (see […] and FIG. 4). An ultraviolet-visible light absorption spectrum was also obtained at the same time for a blank sample (see FIG. 6) for control purposes.
This is in stark contrast to the unstable nature of, for example, previously known salts of SAMe, such as the tosylate or 1,4-butanedisulfonate salts, the stability of which can be determined in the same manner as described herein.

Caco-2 cells = test: In vitro Caco-2 permeability assay (apical to basolateral); conditions: for mean A->B Papp: analyte SAMe, test compound 2 mM, A side pH 6.5, B side pH 7.4, 2 hours
Method: The following in vitro permeability assay was conducted to determine the efficacy of certain absorption enhancers in increasing the permeability of a IPA salt of SAMe, or a pharmaceutically acceptable salt thereof, of the invention. See Stewart, B H, et al. (1995) “Comparison of intestinal permeabilities determined in multiple in vitro and in situ models: Relationship to absorption in humans,” Pharm. Res. 12:693.
The test compound was the IPA salt of SAMe 1,4-butanedisulfonate (the product of Synthetic Example 2) (SAMeIPA). The concentration of the test compound used in the assay was 2 mM.
The signal was optimized for each test formulation by ESI positive or negative ionization mode. An MS2 scan or a SIM scan was used to optimize the fragmenter voltage and a product ion analysis was used to identify the best fragment for analysis, and the collision energy was optimized using a product ion or MRM scan. An ionization ranking was assigned indicating the formulation's ease of ionization.
Samples were analyzed by LC/MS/MS using an Agilent 6410 mass spectrometer coupled with an Agilent 1200 HPLC and a CTC PAL chilled autosampler, all controlled by MassHunter software (Agilent). After separation on a C18 reverse phase HPLC column (Agilent, Waters, or equivalent) using an acetonitrile-water gradient system, peaks were analyzed by mass spectrometry (MS) using ESI ionization in MRM mode.
The permeability of SAMe and IPA were measured independently. […]
For Apical to Basolateral (A->B) permeability, the test formulation was added to the apical (A) side and amount of permeation is determined on the basolateral (B) side; for Basolateral to Apical (B>A) permeability, the test formulation was added to the B side and the amount of permeation was determined on the A side. […]
To verify the Caco-2 cell monolayers were properly formed, aliquots of the cell buffers were analyzed by fluorescence to determine the transport of the impermeable dye Lucifer Yellow.
Data was expressed as apparent permeability (Papp). […]

Row | Compound | overall mortality and/or progression to liver transplant [1] [%] | maximum absorption peak at 420 nm (toxic degradation products of incorporated IPA) [2] | SAMe degradation products by HPLC or UV absorption spectra [2] | mean A->B Papp (Caco-2 cells) | mean A->B Papp (Caco-2 cells; listed as S-adenosyl-L-methionine 1,4-butanedisulfonate indole-3-propionate salt) | fold increase in S-adenosyl-L-methionine permeability (Caco-2 cells; using trimethyl chitosan homopolymer as the absorption enhancer) [fold]
1 | C[S+](CC[C@H](N)C(=O)O)C[C@H]1O[C@@H](n2cnc3c(N)ncnc32)[C@H](O)[C@@H]1O (stereo partly drawn) [SAMe, S-adenosyl-L-methionine] | 12 |  |  |  |  | 
2 | S-Adenosyl-L-methionine p-toluenesulfonate indole-3-propionate [Synthetic Example 1] |  | no maximum absorption peaks at 420 nm were noted | No SAMe degradation products were detected |  |  | 
3 | S-Adenosyl-L-methionine 1,4-butanedisulfonate indole-3-propionate [SAMeIPA] |  | no maximum absorption peaks at 420 nm were noted | No SAMe degradation products were detected | 0.20 | low | 37.5
